One assay relates to Staphylococcus aureus. As to the kind of experiment: Antimicrobial activity against Staphylococcus aureus. It counts as functional.
The subject of the next assay is Escherichia coli. As to the kind of experiment: Antimicrobial activity against Escherichia coli. It counts as functional.
Another assay has as its system Pyricularia oryzae. Description: Antimicrobial activity against Pyricularia oryzae. It counts as functional, organism-based.
A further assay has as its system Alternaria solani. As to the kind of experiment: Antimicrobial activity against Alternaria solani. The assay is classed as functional, organism-based.

Non-standard residues stand in square brackets, D forms with d. Residues, ends and D or L forms follow the SMILES beside them. *: point of attachment. Prolinol = OC[C@@H]1CCCN1*; Aib = CC(C)(N)C(=O)O

Usually IC90 stands for the point of the concentration-response curve where the effect stands at 90%. In general, IC50 refers to the concentration at which inhibition is half-maximal. A higher IC50 goes with weaker potency. Turning to `CC[C@@H](C)[C@H](NC(=O)C(C)(C)NC(=O)[C@@H](NC(=O)C(C)(C)NC(=O)C(C)(C)NC(C)=O)C(C)C)C(=O)NC(C)(C)C(=O)NC(C)(C)C(=O)N[C@@H](C)C(=O)NC(C)(C)C(=O)N1CCC[C@H]1CO` [ASPERELINE A], the IC90 in the assay with Staphylococcus aureus and with Escherichia coli was more than 500 µg/mL in each case. Also, the IC50 in the assay on Pyricularia oryzae and in the assay on Alternaria solani was more than 100 µg/mL in each case.

With `CC[C@@H](C)[C@H](NC(=O)C(C)(C)NC(=O)[C@@H](NC(=O)C(C)(C)NC(=O)[C@H](C)NC(C)=O)C(C)C)C(=O)NC(C)(C)C(=O)NC(C)(C)C(=O)N[C@@H](C)C(=O)NC(C)(C)C(=O)N1CCC[C@H]1CO` [ASPERELINE B], the IC90 with Staphylococcus aureus and in the assay on Escherichia coli was more than 500 µg/mL throughout. Besides, the IC50 in the assay on Pyricularia oryzae and with Alternaria solani was more than 100 µg/mL each time.

Consider `CC[C@@H](C)[C@H](NC(=O)C(C)(C)NC(=O)[C@@H](NC(=O)C(C)(C)NC(=O)C(C)(C)NC(C)=O)C(C)C)C(=O)NC(C)(C)C(=O)N[C@@H](C)C(=O)N[C@@H](C)C(=O)NC(C)(C)C(=O)N1CCC[C@H]1CO` [ASPERELINE C], for which the concentration for an effect of 90% (IC90) with Staphylococcus aureus and in the assay with Escherichia coli was more than 500 µg/mL each time. For the same molecule, the IC50 in the assay on Pyricularia oryzae and with Alternaria solani was more than 100 µg/mL throughout.

Take `CC(=O)NC(C)(C)C(=O)NC(C)(C)C(=O)N[C@H](C(=O)NC(C)(C)C(=O)N[C@H](C(=O)NC(C)(C)C(=O)NC(C)(C)C(=O)N[C@@H](C)C(=O)NC(C)(C)C(=O)N1CCC[C@H]1CO)C(C)C)C(C)C` [ASPERELINE D] (Ac-[Aib][Aib]V[Aib]V[Aib][Aib]A[Aib]-Prolinol): the concentration for an effect of 90% (IC90) in the assay with Staphylococcus aureus and in the assay with Escherichia coli was more than 500 µg/mL each time. Moreover, the half-inhibitory concentration (IC50) in the assay on Pyricularia oryzae and in the assay with Alternaria solani was more than 100 µg/mL each time.

For `CC[C@@H](C)[C@H](NC(=O)C(C)(C)NC(=O)[C@@H](NC(=O)C(C)(C)NC(=O)C(C)(C)NC(C)=O)C(C)C)C(=O)NC(C)(C)C(=O)NC(C)(C)C(=O)N[C@@H](CO)C(=O)NC(C)(C)C(=O)N1CCC[C@H]1CO` [ASPERELINE E], the IC90 in the assay on Staphylococcus aureus and in the assay on Escherichia coli was more than 500 µg/mL each time. The IC50 with Pyricularia oryzae and in the assay on Alternaria solani was more than 100 µg/mL each time.

`CC[C@@H](C)[C@H](NC(=O)C(C)(C)NC(=O)[C@@H](NC(=O)[C@@H](NC(=O)C(C)(C)NC(C)=O)C(C)C)C(C)C)C(=O)NC(C)(C)C(=O)NC(C)(C)C(=O)N[C@@H](C)C(=O)NC(C)(C)C(=O)N1CCC[C@H]1CO` [ASPERELINE F]: the IC90 with Staphylococcus aureus and in the assay on Escherichia coli was more than 500 µg/mL throughout. Also, the 50% inhibitory concentration (IC50) in the assay on Pyricularia oryzae and with Alternaria solani was more than 100 µg/mL in each case.
